Read-outs that look alike come from different tables or passages of the source.
Assays:
MCF7 = assay: Cell proliferation assay (CellTiter-Glo, 96 h), MCF7; type: cell-based; conditions: Homo sapiens
Experimental: In accordance with the invention, the substances were tested in cell-based assays for the ability of the substances of inhibiting tumour cell proliferation after a 96-hour incubation with the substance. Cell viability was tested using the CellTiter-Glo® luminescent cell viability assay (Promega). The cells were sown at a density of 2000-5000 cells/well (depending on the cell line) in 100 μl growth medium on 96-well microtitre plates. For each cell line examined, cells were sown on a separate plate to determine the luminescence at t=0 hours and t=96 hours. After overnight incubation at 37° C., the luminescence values for the t=0 samples were determined. The dose plates for the t=96 hours points in time were treated with substances diluted with growth medium. The cells were then incubated at 37° C. for 96 hours, and the luminescence values for the t=96 hours sample were then determined. For data analysis, the t=0 values were subtracted from the t=96 hour values for treated and untreated samples. The differences in luminescence in percent between substance-treated samples and control values were used to determine the growth inhibition in percent.
The substances were tested in the following cell lines which represent the stated indications in an exemplary manner: […]

[1] = molecular target: human ACC2 (acetyl-coenzyme A carboxylase 2) (Homo sapiens, UniProt O00763); assay: Human ACC2 enzyme assay, Assay B2 (ADP-Glo);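 also: human ACC2 activity read as ADP product, detected by luciferase glow luminescence after residual ATP removal, enzyme near 2 ng/µl in linear range, detection steps at 22 °C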
human ACC2 (acetyl-coenzyme A carboxylase 2), sequence (O00763 27-2458 limits assumed): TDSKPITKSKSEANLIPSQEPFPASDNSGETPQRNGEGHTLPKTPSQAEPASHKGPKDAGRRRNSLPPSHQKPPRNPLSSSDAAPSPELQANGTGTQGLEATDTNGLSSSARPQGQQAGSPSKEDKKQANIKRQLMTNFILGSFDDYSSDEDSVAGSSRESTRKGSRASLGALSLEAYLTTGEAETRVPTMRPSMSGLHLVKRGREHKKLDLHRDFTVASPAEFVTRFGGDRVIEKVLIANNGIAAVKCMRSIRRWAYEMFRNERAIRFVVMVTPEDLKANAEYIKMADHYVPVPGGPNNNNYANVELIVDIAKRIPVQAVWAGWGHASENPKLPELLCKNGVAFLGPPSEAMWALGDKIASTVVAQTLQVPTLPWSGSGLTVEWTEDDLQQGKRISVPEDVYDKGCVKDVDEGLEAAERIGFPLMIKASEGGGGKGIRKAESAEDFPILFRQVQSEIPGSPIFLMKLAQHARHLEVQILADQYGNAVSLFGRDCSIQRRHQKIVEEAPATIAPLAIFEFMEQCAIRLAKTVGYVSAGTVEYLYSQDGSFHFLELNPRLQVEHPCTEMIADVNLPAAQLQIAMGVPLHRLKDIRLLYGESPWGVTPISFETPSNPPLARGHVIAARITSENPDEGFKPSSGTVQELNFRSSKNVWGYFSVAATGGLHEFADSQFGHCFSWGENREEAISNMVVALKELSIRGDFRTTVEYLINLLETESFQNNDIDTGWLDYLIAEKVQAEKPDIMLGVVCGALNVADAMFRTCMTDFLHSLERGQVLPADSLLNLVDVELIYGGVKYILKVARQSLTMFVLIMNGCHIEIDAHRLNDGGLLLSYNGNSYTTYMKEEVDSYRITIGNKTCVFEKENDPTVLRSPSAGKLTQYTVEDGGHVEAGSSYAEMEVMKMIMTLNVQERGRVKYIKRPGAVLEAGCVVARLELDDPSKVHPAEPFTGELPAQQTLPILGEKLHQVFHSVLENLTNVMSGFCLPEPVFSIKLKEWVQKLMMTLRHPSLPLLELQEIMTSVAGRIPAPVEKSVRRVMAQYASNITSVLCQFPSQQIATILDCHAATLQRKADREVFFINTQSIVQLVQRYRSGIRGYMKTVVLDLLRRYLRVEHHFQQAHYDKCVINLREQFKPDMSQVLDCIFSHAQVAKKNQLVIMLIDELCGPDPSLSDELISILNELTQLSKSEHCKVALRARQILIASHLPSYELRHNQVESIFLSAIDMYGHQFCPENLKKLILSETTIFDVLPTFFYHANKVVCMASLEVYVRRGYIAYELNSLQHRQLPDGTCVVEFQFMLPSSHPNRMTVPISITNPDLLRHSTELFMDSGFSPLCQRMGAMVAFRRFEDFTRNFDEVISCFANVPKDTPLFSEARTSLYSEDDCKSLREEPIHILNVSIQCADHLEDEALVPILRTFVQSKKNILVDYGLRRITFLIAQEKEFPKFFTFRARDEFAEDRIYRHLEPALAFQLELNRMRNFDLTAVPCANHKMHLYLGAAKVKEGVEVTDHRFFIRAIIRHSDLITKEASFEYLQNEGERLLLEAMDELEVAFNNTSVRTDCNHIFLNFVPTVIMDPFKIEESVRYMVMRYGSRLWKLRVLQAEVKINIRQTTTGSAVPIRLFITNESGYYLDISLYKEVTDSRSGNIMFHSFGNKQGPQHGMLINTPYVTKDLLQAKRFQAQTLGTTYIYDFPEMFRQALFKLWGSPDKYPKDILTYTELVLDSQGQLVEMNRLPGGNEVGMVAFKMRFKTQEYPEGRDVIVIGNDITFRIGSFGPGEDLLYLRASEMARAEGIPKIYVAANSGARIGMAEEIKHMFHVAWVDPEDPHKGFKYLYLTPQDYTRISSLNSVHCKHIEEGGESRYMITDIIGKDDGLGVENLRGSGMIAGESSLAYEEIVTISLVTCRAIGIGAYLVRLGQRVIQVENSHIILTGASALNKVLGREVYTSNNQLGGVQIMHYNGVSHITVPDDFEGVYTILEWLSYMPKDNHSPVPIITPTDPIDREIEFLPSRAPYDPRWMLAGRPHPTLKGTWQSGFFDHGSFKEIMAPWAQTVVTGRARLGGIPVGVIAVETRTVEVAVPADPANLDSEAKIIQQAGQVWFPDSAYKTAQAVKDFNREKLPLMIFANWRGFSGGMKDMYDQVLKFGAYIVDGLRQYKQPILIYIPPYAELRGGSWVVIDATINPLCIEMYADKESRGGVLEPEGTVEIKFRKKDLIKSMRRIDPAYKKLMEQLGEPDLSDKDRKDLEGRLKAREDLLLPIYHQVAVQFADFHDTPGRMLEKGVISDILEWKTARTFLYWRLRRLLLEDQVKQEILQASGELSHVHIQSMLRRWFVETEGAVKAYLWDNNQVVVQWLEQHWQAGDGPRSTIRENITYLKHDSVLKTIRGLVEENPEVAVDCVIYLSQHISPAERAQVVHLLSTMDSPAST

[2] = molecular target: T1, human ACC1 (acetyl-coenzyme A carboxylase alpha transcript variant 1) (Homo sapiens, UniProt Q13085); assay: Human ACC1 enzyme assay, Assay B1 (ADP-Glo); type: biochemical
T1 construct: FLAG (C); made in house; host or cells: baculovirus-infected insect cells (Hi5)

[3] = MCF7, Table 7, 96-hour incubation
[4] = Assay B1, read-out: ACC 1 (=B1) IC50
[5] = Assay B1, ADP-Glo, read-out: ACC 1 (=B1) IC50

| IC50 (MCF7; [3]) [nM] | IC50 [1] [nM] | IC50 [2, 4] [nM] | IC50 (MCF7; MCF7 cells) [nM] | IC50 [2, 5] [nM] | Structure (SMILES) | IC50 [2] [nM] |
| --- | --- | --- | --- | --- | --- | --- |
| 640 | > 20000 | 10600 | – | – | Cc1ccc(-c2ccc(Cl)cc2)cc1C1=C(O)[C@@]2(CC[C@H](OCC(C)C)C2)NC1=O (relative stereo) [1-49, rel-(5R,7R)-3-(4′-chloro-4-methylbiphenyl-3-yl)-4-hydroxy-7-(2-methylpropoxy)-1-azaspiro[4.4]non-3-en-2-one] | – |
| 54 | 558 | 357 | – | – | Cc1ccc(-c2ccc(Cl)cc2)c(C)c1C1=C(O)C2(CCC(C)CC2)NC1=O (stereo not shown) [1-4, 3-(4′-chloro-2,4-dimethylbiphenyl-3-yl)-4-hydroxy-8-methyl-1-azaspiro[4.5]dec-3-en-2-one] | – |
| 191 | > 20000 | 5810 | – | – | Cc1cc(C)c(-c2ccc(Cl)cc2)cc1C1=C(O)C2(CCCOC2)NC1=O (stereo not shown) [1-8, 3-(4′-chloro-4,6-dimethylbiphenyl-3-yl)-4-hydroxy-7-oxa-1-azaspiro[4.5]dec-3-en-2-one] | – |
| 322 | > 20000 | 871 | – | – | Cc1ccc(-c2ccc(C(F)(F)F)cc2)cc1C1=C(O)C2(CCCCC2)NC1=O [1-12, 4-hydroxy-3-[4 methyl-4′-(trifluoromethyl)biphenyl-3-yl]-1-azaspiro[4.5]dec-3-en-2-one] | – |
| 410 | > 20000 | 216 | – | – | Cc1ccc(-c2ccc(C)c(C3=C(O)C4(CCCCC4)NC3=O)c2)cc1 [1-13, 3-(4,4′-dimethylbiphenyl-3-yl)-4-hydroxy-1-azaspiro[4.5]dec-3-en-2-one] | – |
| 436 | 16300 | 2680 | – | – | Cc1ccc(-c2ccc(Cl)cc2)cc1C1=C(O)CN(C2CCCCC2)C1=O [1-22, 3-(4′-chloro-4-methylbiphenyl-3-yl)-1-cyclohexyl-4-hydroxy-1,5-dihydro-2H-pyrrol-2-one] | – |
| 262 | 2330 | 459 | – | – | Cc1ccc(-c2ccc(Cl)cc2)cc1C1=C(O)C2(CCCCCCC2)NC1=O [1-23, 3-(4′-chloro-4-methylbiphenyl-3-yl)-4-hydroxy-1-azaspiro[4.7]dodec-3-en-2-one] | – |
| 188 | 3090 | 367 | – | – | Cc1ccc(-c2ccc(Cl)cc2)cc1C1=C(O)C2(CCCCCC2)NC1=O [1-26, 3-(4′-chloro-4-methylbiphenyl-3-yl)-4-hydroxy-1-azaspiro[4.6]undec-3-en-2-one] | – |
| 107 | 19000 | 516 | – | – | Cc1ccc(-c2ccc(F)cc2)cc1C1=C(O)C2(CCC(OCC(F)(F)F)CC2)NC1=O (stereo not shown) [1-32, 3-(4′-fluoro-4-methylbiphenyl-3-yl)-4-hydroxy-8-(2,2,2-trifluoroethoxy)-1-azaspiro[4.5]dec-3-en-2-one] | – |
| 112 | 11400 | 297 | – | – | Cc1ccc(-c2ccc(Cl)cc2)c(C)c1C1=C(O)C2(CCC3(CCCO3)CC2)NC1=O (stereo not shown) [1-34, 11-(4′-chloro-2,4-dimethylbiphenyl-3-yl)-12-hydroxy-1-oxa-9-azadispiro[4.2.4.2]tetradec-11-en-10-one] | – |
| 1220 | > 20000 | 4930 | – | – | CO[C@H]1CC[C@]2(CC1)NC(=O)C(c1cc(-c3ccc(F)c(Cl)c3)ccc1C)=C2O [1-43, (5s,8s)-3-(3′-chloro-4′-fluoro-4-methylbiphenyl-3-yl)-4-hydroxy-8-methoxy-1-azaspiro[4.5]dec-3-en-2-one] | – |
| – | 2700 | – | 624 | 175 | Cc1ccc(-c2ccc(Cl)cc2)c(C)c1C1=C(O)C2(CCCCC2)OC1=O [2-4, 3-(4′-chloro-2,4-dimethylbiphenyl-3-yl)-4-hydroxy-1-oxaspiro[4.5]dec-3-en-2-one] | – |
| – | 5420 | – | 724 | 6850 | Cc1cc(C)c(-c2ccc(Cl)cc2)c(C)c1C1=C(O)C2(CCCCC2)OC1=O [2-6, 3-(4′-chloro-2,4,6-trimethylbiphenyl-3-yl)-4-hydroxy-1-oxaspiro[4.5]dec-3-en-2-one] | – |
| – | 1180 | – | 400 | 58 | COCC1CCC2(CC1)OC(=O)C(c1c(C)ccc(-c3ccc(Cl)cc3)c1C)=C2O (stereo not shown) [2-17, 3-(4′-chloro-2,4-dimethylbiphenyl-3-yl)-4-hydroxy-8-(methoxymethyl)-1-oxaspiro[4.5]dec-3-en-2-one] | – |
| – | 12200 | – | 935 | 276 | COCCC1CCCC2(C1)OC(=O)C(c1cc(-c3ccc(Cl)cc3)ccc1C)=C2O (stereo not shown) [2-18, 3-(4′-chloro-4-methylbiphenyl-3-yl)-4-hydroxy-7-(2 methoxyethyl)-1-oxaspiro[4.5]dec-3-en-2-one] | – |
| – | 1720 | – | 214 | 102 | COCC1CCC2(CC1)OC(=O)C(c1cc(-c3ccc(Cl)cc3)ccc1C)=C2O (stereo not shown) [2-20, 3-(4′-chloro-4-methylbiphenyl-3-yl)-4-hydroxy-8-(methoxymethyl)-1-oxaspiro[4.5]dec-3-en-2-one] | – |
| – | > 20000 | – | 5520 | 6110 | Cc1ccc(-c2ccc(Cl)cc2)c(C)c1C1=C(O)[C@]2(CC[C@]3(CCCO3)CC2)OC1=O [2-26, (5s,8r)-3-(4′-chloro-2,4-dimethylbiphenyl-3-yl)-4-hydroxy-1,9-dioxadispiro[4.2.4.2]tetradec-3-en-2-one] | – |
| – | 4600 | – | 296 | 128 | Cc1ccc(-c2ccc(F)cc2)cc1C1=C(O)[C@]2(CC[C@@]3(CCCO3)CC2)OC1=O [2-28, (5r,8s)-3-(4′-fluoro-4-methylbiphenyl-3-yl)-4-hydroxy-1,9-dioxadispiro[4.2.4.2]tetradec-3-en-2-one] | – |
| – | – | 2540 | 3440 | – | Cc1ccc(-c2ccc(Cl)cc2)cc1C1=C(O)CC(C)(C)N(C)C1=O [9-4, 3-(4′-chloro-4-methylbiphenyl-3-yl)-4-hydroxy-1,6,6-trimethyl-5,6-] | – |

| Structure (SMILES) | IC50 (MCF7; [3]) [nM] | IC50 [1] [nM] | IC50 [2, 4] [nM] | IC50 (MCF7; MCF7 cells) [nM] | IC50 [2, 5] [nM] | IC50 [2] [nM] |
| --- | --- | --- | --- | --- | --- | --- |
| COC1CCC2(CC1)NC(=O)C(c1c(C)cc(C)c(-c3ccc(Cl)cc3)c1C)=C2O (stereo not shown) [1-9, 3-(4′-chloro-2,4,6-trimethylbiphenyl-3-yl)-4-hydroxy-8-methoxy-1-azaspiro[4.5]dec-3-en-2-one] | 287 | 276 | – | – | – | 11400 |
| Cc1ccc(-c2ccc(Cl)cc2)c(C)c1C1=C(O)C2(CCCOC2)NC1=O (stereo not shown) [1-10, 3-(4′-chloro-2,4-dimethylbiphenyl-3-yl)-4-hydroxy-7-oxa-1-azaspiro[4.5]dec-3-en-2-one] | 1300 | 9460 | – | – | – | 500 |
| Cc1ccc(-c2ccc(Cl)cc2)cc1C1=C(O)C2CSCCN2C1=O (stereo not shown) [1-21, 7-(4′-chloro-4-methylbiphenyl-3-yl)-8-hydroxy-1,3,4,8a-tetrahydro-6H-pyrrolo[2,1-c][1,4]thiazin-6-one] | 392 | 10300 | – | – | – | 630 |
| CO[C@H]1CC[C@]2(CC1)NC(=O)C(c1c(C)ccc(-c3ccc(F)cc3)c1C)=C2O [1-45, (5s,8s)-3-(4′-fluoro-2,4-dimethylbiphenyl-3-yl)-4-hydroxy-8-methoxy-1-azaspiro[4.5]dec-3-en-2-one] | 626 | 8830 | – | – | – | 701 |
| COC1CCC2(C1)NC(=O)C(c1c(C)ccc(-c3ccc(Cl)cc3)c1C)=C2O (stereo not shown) [1-48, 3-(4′-chloro-2,4-dimethylbiphenyl-3-yl)-4-hydroxy-7-methoxy-1-azaspiro[4.4]non-3-en-2-one] | 852 | 10400 | – | – | – | 1560 |
| COCC1CCCC2(C1)NC(=O)C(c1cc(-c3ccc(Cl)cc3)ccc1C)=C2O (stereo not shown) [1-51, 3-(4′-chloro-4-methylbiphenyl-3-yl)-4-hydroxy-7-(methoxymethyl)-1-azaspiro[4.5]dec-3-en-2-one] | 253 | 5450 | – | – | – | 415 |
| COCC1CCCC2(C1)NC(=O)C(c1cc(-c3ccc(Cl)cc3)ccc1Cl)=C2O (stereo not shown) [1-52, 3-(4,4′-dichlorobiphenyl-3-yl)-4-hydroxy-7-(methoxymethyl)-1-azaspiro[4.5]dec-3-en-2-one] | 739 | 16000 | – | – | – | 1790 |
| COCCC1CCC2(CC1)NC(=O)C(c1c(C)ccc(-c3ccc(Cl)cc3)c1C)=C2O (stereo not shown) [1-57, 3-(4′-chloro-2,4-dimethylbiphenyl-3-yl)-4-hydroxy-8-(2-methoxyethyl)-1-azaspiro[4.5]dec-3-en-2-one] | 250 | 1680 | – | – | – | 1290 |
| Cc1ccc(-c2ccc(Cl)cc2)cc1C1=C(O)C(C)(C)OC1=O [2-3, 3-(4′-chloro-4-methylbiphenyl-3-yl)-4-hydroxy-5,5-dimethylfuran-2(5H)-one] | – | > 20000 | – | 1060 | – | 3730 |
| COC1CCCC2(C1)OC(=O)C(c1c(C)cc(C)c(-c3ccc(Cl)cc3)c1C)=C2O (stereo not shown) [2-12, 3-(4′-chloro-2,4,6-trimethylbiphenyl-3-yl)-4-hydroxy-7-methoxy-1-oxaspiro[4.5]dec-3-en-2-one] | – | 3420 | – | 1240 | – | 4260 |
| Cc1ccc(-c2ccc(Cl)cc2)cc1C1C(=O)N(C)OC(C)(C)C1=O (stereo not shown) [11-1, 4-(4′-chloro-4-methylbiphenyl-3-yl)-2,6,6-trimethyl-1,2-oxazinane-3,5-dione] | – | – | – | 3330 | – | 19200 |
